How the values were obtained:
human CD8+ cells = test: Generation of CTL from human PBMC with peptide- or polyepitope-pulsed dendritic cells, intracellular IFN-γ staining; assay type: cell-based; conditions: human PBMC; multiple restimulations of CD8+ cells; T2 cells loaded with p380, p391 or p393
Method: The three graphs entitled hCTL380, hCTL391 and hCTL393 represent respectively the testing of p380, p391 and p393-specific human CTLs. P391 and p393 specific CTLs were tested towards EBV-B cells, whereas p380 specific CTLs were tested towards T2 cells. The number of IFN-γ producing CD8+ cells for 10^5 CD8+ cells upon activation, indicated on the X-axis, was measured, as assessed by staining cells for CD8 and intracellular IFN-γ.
Polyepitope induced human CTL were tested for their capacity to respond to T2 cells loaded with p380, p391 or p393 or the irrelevant HIVpol589 peptides in intracellular IFN-γ staining. The X axis represents the number of IFNγ-producing CTL/10^5 CD8+ cells. On the Y axis, upper to lower bars represent the results obtained when cells were loaded respectively with irrelevant HIV pol589 peptides, or with p380, p391 or p393 peptides.
Generation of CTL from Human Peripheral Blood Mononuclear Cells (PBMC). Fresh PBMC collected from healthy donnors under informed consent were serologically typed for the studied HLA-class I molecule, and purified using standard Ficoll-Paque (Amersham Pharmacia Biotech AB). Dendritic cells (DC) were prepared by cultivating plastic adherent PBMC in the presence of 500 U/mL GM-CSF (R&D Systems Inc. MN) and 500 U/mL IL-4 (R&D Systems Inc. MN) for 7 days such as described in Keogh et al. (30).
DC were then maturated for 2 days with 2 μg/mL anti-CD40 antibody and 100 ng/mL Poly I:C (Sigma-Aldrich). […] Autologous CD8+ purified T-cells (CD8 MicroBeads, Miltneyi Biotec Inc. CA) were stimulated weekly with DC pulsed for two hours with peptide (10 μM) and irradiated at 35Gy at a T:DC ratio of 10:1 in culture medium (CM; RPMI 1640 supplemented with 10% human AB serum, […] L-glutamine and gentamycin). 1×10^3 U/mL IL-6 and SU/mL IL-12 (R&D Systems Inc. MN) were added during the first week of culture. 20 U/mL clinical grade IL-2 (Proleukin, Chiron Corp.) and 10 ng/mL IL-7 (R&D Systems Inc. MN) were added during the next two weeks of culture. 7 days after the last stimulation with DC, peptide specific IFN-γ secreting CD8+ T cells were magnetically sorted following encounter of the peptide presented by HLA-A*0201+ B-EBV cells (IFN-γ Secretion Assay, Miltenyi Biotec Inc. CA). The characterization of peptide-specific T cells was tested 7 days after the purification step.
Intracellular IFN-g Staining. 5×10^4 T cells were incubated with 10^5 stimulating peptide loaded EBV-B cells or with 10^5 tumor cells in the presence of 20 μg/ml brefeldin-A (Sigma, Oakville, Canada). Six hours later, they were washed, stained with r-phycoerythrin-conjugated anti-CD8 antibody (Caltag Laboratories, Burlingame, Calif.) in PBS for 25 min at 4° C., washed and fixed with 4% PFA. Then, cells were permeabilized with PBS 0.5% BSA 0.2% saponin (Sigma, Oakville, Canada), and stained with allophycocyanin-conjugated anti-IFNg mAb (PharMingen, Mississauga, Canada) for 25 min at 4° C. Cells were analyzed on FACSCalibur (Becton Dickinson, Mountain View, Calif.).

HHD mice = test: Vaccination of HHD mice, ex vivo IFN-γ ELISPOT assay; assay type: in vivo, mouse
Text: Immune responses were monitored ex vivo in an IFN-γ Elispot assay. The X axis represents the percentage of immunized mice responding to the different epitopes.
The 8 graphs represent the immune responses obtained for each of the immunized mice with the 22-mer epitope. The X axis represents the number of IFN-γ producing CTLs for 10^5 ex vivo CD8+ cells upon activation. On the Y axis, the bars represent the respective level of IFN-γ producing CTLs against p391 or p393 peptide or against irrelevant HIV pol589 peptides.
Generation of CTL in HLA-transgenic mice. HLA-transgenic mice were injected subcutaneously at the base of the tail with 100 μg of peptide emulsified in incomplete Freund's adjuvant (IFA) in the presence of 140 μg of the I-A^b restricted HBVcore-derived T-helper epitope (128-140; sequence TPPAYRPPNAPIL). After 11 days, spleen cells (5×10^7 cells in 10 mL) were stimulated in vitro with peptide (10 μM). […]
ELISPOT Assay. The ELISPOT assay was used to quantify peptide epitope-specific, IFN-γ-releasing effector cells. […] The spots were counted using an automated image analysis system ELISPOT Reader (A/D Strassberg, Germany). The peptide-specific IFN-γ secreting cells frequency could be calculated from the numbers of spot-forming cells and from the CD8+ frequency in the studied lymphocyte population, adressed by immunostaining with an anti-CD8 mAb (clone 3B5; Caltag Laboratories, CA).

LMGDKSENVQDLLLLDVAPLSL [22-mer polyepitope]
specificity of human CTL lines induced with pulsed dendritic cells (human CD8+ cells): showed specificity towards all three Hsp70 epitopes
mice responding after vaccination (HHD mice): induced responses in most mice
epitopes against which immune responses were raised after vaccination (HHD mice; HSP380, HSP391, HSP393 epitopes): induced immune responses against all three Hsp70 epitopes

Source: US20050267020A1, “Polypeptides derived from inducible hsp70 and pharmaceutical compositions containing the same” (priority 2001, published 2005)
